From US8017374B2, “Processes for decolorization of colored effluents” (priority 2005, dated 2011)

Assays:
[1] = tested on: culture supernatant of NIOCC 2a; test: Decolorization using culture supernatant of NIOCC 2a; assay type: biochemical, unidentified marine fungus NIOCC #2a (MTCC 5159); settings: dyes 0.02-0.04%, 60° C., pH 6.0, supernatant concentrated two-fold
Procedure: The process of decolorization of various dyes and effluents using the cell-free supernatant involves addition of filter sterilized culture supernatant of the said fungus grown in the presence of various dyes, inducers and dilute effluents. The decolorization of the effluents was monitored spectrophotometrically at appropriate wavelengths up to 12 hours. The uninoculated culture medium containing these dyes served as control.
NIOCC 2a was grown in B&K medium prepared in sea water of 25 ppt salinity (the pH of the medium being 7.0) for 6 days. It was supplemented with 1% textile effluent B on day 6. The culture supernatant on day 12 was collected and concentrated two-fold. The concentrated enzyme was incubated with various dyes used at concentrations as given in Example 2 and the effluents were used at 10% only. The decolorization was monitored at 6 and 12 hours by incubating the samples in a water bath at 60° C. and pH 6.0 The absorbance maxima specific to that particular dye/effluent was monitored for 6 to 12 hours.

[2] = Decolorization using exopolymeric substance produced by NIOCC 2a; design: species or system unidentified marine fungus NIOCC #2a (MTCC 5159); settings: 24 hours, dyes 0.015-0.04%, 10 mg EPS, 60° C., phosphate buffer pH 6
Procedure: The process of decolorization of effluents using the exoploymeric substance (EPS) produced by the fungus is carried out using separated and freeze dried EPS. A known amount of EPS is incubated with appropriately diluted effluents for a period of 6 to 12 hours. The decolorization is monitored in the supernatant after centrifugation. While using the EPS, about 10 mg of EPS (dry weight) is contacted with 3 ml of effluent having the final concentration of 10%.
The exopolymeric substance (EPS) of the fungus NIOCC 2a was prepared as follows: 1 liter of a 12 day old culture filtrate was frozen for 12 to 24 hours and allowed to thaw. The EPS precipitated on thawing and was removed by decantation. Methanol at a final concentration of 70% was added to the supernatant to further precipitate the remaining EPS from the culture supernatant. The precipitated EPS was collected by centrifugation and the pooled precipitate was lyophilized. To 10 mg of this EPS, various dyes and effluents were added at concentrations as given in example 2 and incubated at 60° C. with phosphate buffer at pH 6. […]

NIOCC 2a = test: Enhancement of laccase production by inducers; laccase activity in culture supernatant (ABTS); settings: for LACCASE ACTIVITY: dyes as inducers at 0.015-0.04%;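 for all read-outs here: supernatant laccase measured by 2 mM ABTS oxidation in 100 mM glycine-HCl buffer at pH 3, absorbance at 405 nm tracked over time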
Procedure: The laccase activity in the culture supernatant was measured using 2 mM ABTS prepared in 100 mM glycine-HCl buffer (pH 3) at 405 nm spectrophotometrically as a function of time.
In order to enhance the laccase production by MTCC 5159 various inducers were added to a 3 day old culture grown in B&K medium prepared in 25 ppt sea water having a pH of 7.0. The inducers such as p-anisidine, catechol, guaiacol, ferulic acid, vanillic acid, veratryl alcohol and 2,5 dimethyl aniline were used at a final concentration of 1 mM. […] The laccase activity in the culture supernatant was measured at an interval of 3 days up to 21 days as described in Example 1.
Dyes which are generally used for decolorization were also tested for their laccase induction properties. Trypan blue, aniline blue and remazol brilliant blue R at a final concentration of 0.04%, methylene blue, crystal violet, brilliant green and congo red at 0.02% and reactive orange 176 at 0.015% final concentration were added to B & K medium prepared in 25 ppt sea water having the pH of 7.0.

fungus MTCC 5159 = test: Decolorization of dyes and effluents by growing fungus culture; assay type: cell-based, unidentified marine fungus NIOCC #2a (MTCC 5159); settings: FIG. 2a, up to day 6
Text: Black liquor is dark brown in color and after decolorization by the fungus MTCC 5159, it turns light brown after 6 days. Similarly molasses spent wash is dark brown and turns straw color after 6 days. Textile effluents A, originally magenta in color was comparatively difficult to decolorize whereas Textile effluent B, originally bottle green in color was comparatively easy to decolorize to a light green color after 6 days. The process for the decolorization of various effluents utilizing the fungal biomass involves addition of sterilized, appropriately diluted effluents to a 6 day-old culture of NIOCC 2a growing in B&K medium. The degradation of effluents and various dyes is monitored spectrophotometrically by removing an aliquot of sample from these cultures and measuring changes in absorbance at appropriate wavelengths. The decolorization is measured every alternate day up to 6 days. […]
The fungus MTCC 5159 was tested for its ability to decolorize various dyes and effluents by monitoring the change in its specific absorbance maxima every alternate day over a period of 6 days after the dye/effluents were added. […] The extent of decolorization was recorded as residual color (in percentage). […] Effluents like textile effluent A, B, MSW and black liquor were also monitored at their absorbance maxima in B&K medium, at 505, 663, 663 and 317 nm respectively.

Row | Compound | PERCENT DECOLORIZATION ([1]; 6 hours) [%] | PERCENT DECOLORIZATION ([1]; 12 hours) [%] | PERCENT DECOLORIZATION ([2]; listed as Congo red) [%] | PERCENT DECOLORIZATION ([2]; listed as congo red) | comparison of inducers of laccase production, in words (NIOCC 2a) | PERCENT DECOLORIZATION [2] [%] | LACCASE ACTIVITY (NIOCC 2a; day 3) [UL^−1] | LACCASE ACTIVITY (NIOCC 2a; day 6) [UL^−1] | LACCASE ACTIVITY (NIOCC 2a; day 8) [UL^−1] | LACCASE ACTIVITY (NIOCC 2a; day 10) [UL^−1] | LACCASE ACTIVITY (NIOCC 2a; day 12) [UL^−1] | LACCASE ACTIVITY (NIOCC 2a; day 14) [UL^−1] | LACCASE ACTIVITY (NIOCC 2a; day 16) [UL^−1] | LACCASE ACTIVITY (NIOCC 2a; day 18) [UL^−1] | comparison of dye degradation by the fungus culture, in words (fungus MTCC 5159)
1 | Nc1c(/N=N/c2ccc(-c3ccc(/N=N/c4cc(S(=O)(=O)O)c5ccccc5c4N)cc3)cc2)cc(S(=O)(=O)O)c2ccccc12 [Congo Red, congo red] | 54 | 47 | 29 | not decolorized to these extents |  |  |  |  |  |  |  |  |  |  | 
2 | O=S(=O)([O-])[O-].[Cu+2] [Copper sulphate] |  |  |  |  | best inducer |  |  |  |  |  |  |  |  |  | 
3 | CN(C)c1ccc(C(=C2C=CC(=[N+](C)C)C=C2)c2ccc(N(C)C)cc2)cc1 [Crystal Violet, crystal violet] | 44 | 54 |  |  |  | 80 |  |  |  |  |  |  |  |  | 
4 | CN(C)c1ccc2nc3ccc(=[N+](C)C)cc-3sc2c1 [Methylene Blue, methylene blue] | 3 | 5 |  |  |  |  |  |  |  |  |  |  |  |  | 
5 | Nc1c(S(=O)(=O)[O-])cc(Nc2cccc(S(=O)(=O)CCOS(=O)(=O)[O-])c2)c2c1C(=O)c1ccccc1C2=O.[Na+].[Na+] [RBBR, remazol brilliant blue R] | 67 | 46 |  |  |  | 100 | 3 | 43 | 0 | 0 | 0 | 0 | 0 | 0 | 
6 | Cc1cc(-c2ccc(/N=N/c3c(S(=O)(=O)O)cc4cc(S(=O)(=O)O)cc(N)c4c3O)c(C)c2)ccc1/N=N/c1c(S(=O)(=O)O)cc2cc(S(=O)(=O)O)cc(N)c2c1O [Trypan Blue, Trypan blue] | 22 | 25 |  |  |  | 79 |  |  |  |  |  |  |  |  | 
7 | Reactive orange 176 [RO 176] |  |  |  |  |  | 100 | 21 | 8 | 335 | 949 | 904 | 1158 | 1108 | 1180 | least degraded
8 | aniline blue | 55 | 40 |  |  |  | 75 | 12 | 67 | 21 | 825 | 1051 | 1166 | 1211 | 1048 | 
